Experimental findings from patent US7868006B2, “Heterocyclic substituted piperazines with CXCR3 antagonist activity” (Schering Corporation, priority 2005, dated 2011) are described below.

Where only a bound is given, the exact number is not on record here.

For the test, the target named is T1, human CXCR3 (N-delta 4) (Homo sapiens, UniProt P49682).
T1 construct: CD8 leader (N); Flag tag (N); expressed in transfected cells; host or cells: mouse pro-B Ba/F3 cells, stably transfected with pME18Sneo-hCXCR3 (N-delta 4); membrane preparation
T1 sequence (P49682 5-368 limits assumed): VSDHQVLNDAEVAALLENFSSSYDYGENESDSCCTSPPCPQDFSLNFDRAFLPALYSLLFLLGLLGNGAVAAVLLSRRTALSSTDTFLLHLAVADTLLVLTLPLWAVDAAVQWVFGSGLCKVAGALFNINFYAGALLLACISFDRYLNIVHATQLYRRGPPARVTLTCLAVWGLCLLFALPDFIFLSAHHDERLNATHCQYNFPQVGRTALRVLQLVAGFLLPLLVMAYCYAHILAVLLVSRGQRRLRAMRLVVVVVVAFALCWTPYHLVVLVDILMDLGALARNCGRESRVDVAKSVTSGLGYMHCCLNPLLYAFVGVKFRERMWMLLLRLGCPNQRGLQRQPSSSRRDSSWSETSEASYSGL
Put plainly: Human CXCR3 (N-delta 4) Scintillation Proximity Assay (SPA), [125I] IP-10 binding. The settings on record: IC50 rating; Ba/F3-hCXCR3 (N-delta 4) membranes, 25 pM [125I] IP-10; read-out: IC50. The essentials:
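Membranes from mouse Ba/F3 pro-B cells stably expressing Flag-tagged human CXCR3 (N-delta 4), 2 μg per point, bound to WGA SPA beads. Compound titrations competed with 25 pM [125I] IP-10 for 3 hr at room temperature in HEPES buffer with Ca2+, Mg2+, NaCl, 1.0% BSA; bead-bound radioactivity counted, […] values reported.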
With `CC[C@H]1CN(c2ncc(-c3ncc[nH]3)nc2C)CCN1C1CCN(C(=O)c2ccc(Cl)c(F)c2)CC1` [Compound 124], the IC50 was less than 25 nM.

For `CC[C@H]1CN(c2ncc(-c3nnc(N)o3)nc2C)CCN1C1CCN(C(=O)c2ccc(C(F)(F)F)cc2)CC1` [Compound 72], the IC50 is less than 25 nM.

For the molecule `CC[C@H]1CN(c2nc(N)c(-c3nnc(NCC(=O)NC)o3)nc2C)CCN1C1CCN(C(=O)c2ccc(Cl)nc2N)CC1` [Compound 193], the IC50 is less than 25 nM.

For the molecule `CCOC(=O)c1nnc(-c2nc(Cl)c(N3CCN(C4CCN(C(=O)c5ccc(Cl)cc5)CC4)[C@@H](CC)C3)nc2N)o1` [Compound 91], the IC50 was more than 100 nM.

`CC[C@H]1CN(c2nc(N)c(-c3nnc(N)[nH]3)nc2Cl)CCN1C1CCN(C(=O)c2ccc(Cl)cc2)CC1` [Compound 68]: the IC50 was less than 25 nM.

Turning to `CC[C@H]1CN(c2ncc(-c3nc4ccccc4[nH]3)nc2C)CCN1C1CCN(C(=O)c2ccc(Cl)cc2)CC1` [Compound 146], the IC50 was less than 25 nM.

For `CCNc1nnc(-c2cnc(N3C[C@H](CC)N(C4CCN(C(=O)c5ccc(O)cc5)CC4)C[C@H]3C)c(C)n2)o1` [Compound 145], the half-inhibitory concentration (IC50) lay within 25 to 100 nM.

As to `CC[C@H]1CN(c2nc(N)c(-c3nnc(C)o3)nc2Cl)CCN1C1CCN(C(=O)c2cc(F)c(Cl)nc2Cl)CC1` [Compound 31], the IC50 was less than 25 nM.

Regarding `CCNc1nnc(-c2cnc(N3C[C@H](CC)N(C4CCN(C(=O)c5ccc(Cl)nc5N)CC4)C[C@H]3C)c(C(F)(F)F)n2)o1` [Compound 98], the IC50 is less than 25 nM.

`CC[C@H]1CN(c2nc(N)c(-c3nnc(CO)o3)nc2Cl)CCN1C1CCN(Cc2ccc(Cl)cc2C#N)CC1` [Compound 45]: the IC50 is less than 25 nM.

For `CCNc1nnc(-c2nc(C)c(N3CCN(C4CCN(C(=O)c5ccc(Cl)nc5N)CC4)[C@@H](CC)C3)nc2N)o1` [Compound 174], the concentration for half-maximal inhibition (IC50) is less than 25 nM.

As to `CC[C@H]1CN(c2nc(N)c(-c3nnco3)nc2Cl)CCN1C1CCN(Cc2ccc(Cl)cc2)CC1` [Compound 50], the IC50 was less than 25 nM.

`CC[C@H]1CN(c2ncc(-c3nnc(C)o3)nc2F)CCN1C1CCN(C(=O)c2ccc(Cl)nc2N)CC1` [Compound 137]: the IC50 was 25 to 100 nM.

On to `CC[C@H]1CN(c2nc(N)c(-c3nnc(NCC(=O)NC4CC4)o3)nc2C)CCN1C1CCN(C(=O)c2ccc(Cl)nc2N)CC1` [Compound 194], for which the IC50 was less than 25 nM.

Regarding `CC[C@H]1CN(c2ncc(-c3nnc(N)o3)nc2C)[C@H](C)CN1C1CCN([C@H](C(=O)OC)c2ccc(Cl)cc2)CC1` [Compound 170], the IC50 was in the range of 25 to 100 nM.

As for `CC[C@H]1CN(c2ncc(-c3nc[nH]n3)nc2C)CCN1C1CCN(C(=O)c2cc(F)c(F)cc2Cl)CC1` [Compound 138], the IC50 was in the range of 25 to 100 nM.

For `CC[C@H]1CN(c2ncc(-c3nnc(NC4(C)CC4)o3)nc2C)[C@H](C)CN1C1CCN(C(=O)c2ccc(Cl)nc2N)CC1` [Compound 186], the IC50 is less than 25 nM.

As for `CC[C@H]1CN(c2ncc(-c3nc[nH]n3)nc2C)[C@H](C)CN1C1CCN(C(=O)c2ccc(F)c(F)c2)CC1` [Compound 122], the IC50 lay in the range of 25 to 100 nM.

`CC[C@H]1CN(c2nc(N)c(-c3nnc(CO)o3)nc2Cl)CCN1C1CCN(Cc2ccc(Cl)cc2/C(N)=N\O)CC1` [Compound 2]: the IC50 is less than 25 nM.

Regarding `CC[C@H]1CN(c2nc(N)c(-c3nnc(C)o3)nc2Cl)CCN1C1CCN(Cc2ccc(Cl)cc2)CC1` [Compound 4], the IC50 was less than 25 nM.

`CCNc1nnc(-c2cnc(N3CCN(C4CCN(C(=O)c5ccc(Cl)nc5N)CC4)[C@@H](CC)C3)c(CC)n2)o1` [Compound 173]: the IC50 was less than 25 nM.

For the molecule `CC[C@H]1CN(c2ncc(-c3nnc(NC)o3)nc2C)[C@H](C)CN1C1CCN(C(=O)c2ccc(Cl)nc2N)CC1` [Compound 161], the IC50 was less than 25 nM.

Consider `CCNc1nnc(-c2cnc(N3CCN(C4CCN(C(=O)c5ccc(Cl)cc5C)CC4)[C@@H](CC)C3)c(C)n2)o1` [Compound 156], for which the IC50 is less than 25 nM.

Consider `CC[C@H]1CN(c2nc(N)c(-c3nnc(OC)o3)nc2Cl)CCN1C1CCN(C(=O)c2ccc(Cl)nc2N)CC1` [Compound 79], for which the half-maximal inhibitory concentration (IC50) was more than 100 nM.

`CC[C@H]1CN(c2ncc(-c3nnc(N)o3)nc2C)[C@H](C)CN1C1CCN([C@@H](C)c2ccc(OC(F)(F)F)cc2)CC1` [Compound 177]: the IC50 is less than 25 nM.

Turning to `CCNc1nnc(-c2cnc(N3C[C@H](CC)N(C4CCN(Cc5ccc(F)cc5)CC4)C[C@H]3C)c(C)n2)o1` [Compound 128], the IC50 is less than 25 nM.

For `CCNc1nnc(-c2cnc(N3CCN(C4CCN(C(=O)c5ccc(C)cc5)CC4)[C@@H](CC)C3)c(C)n2)o1` [Compound 126], the IC50 was less than 25 nM.

For the molecule `CC[C@H]1CN(c2nc(N)c(-c3nnc(N)[nH]3)nc2Cl)CCN1C1CCN(C(=O)c2ccc(Cl)nc2N)CC1` [Compound 30], the IC50 was less than 25 nM.

Consider `CC[C@H]1CN(c2ncc(-c3nc[nH]n3)nc2C)CCN1C1CCN(C(=O)c2ccc(C)c(F)c2)CC1` [Compound 110], for which the concentration for half-maximal inhibition (IC50) was less than 25 nM.

As to `CCNc1nnc(-c2cnc(N3CCN(C4CCN(C(=O)c5ccc(Cl)nc5N)CC4)[C@@H](CC)C3)c(C)n2)s1` [Compound 13], the IC50 was less than 25 nM.

Turning to `CC[C@H]1CN(c2ncc(C3=NNCN3)nc2C)[C@H](C)CN1C1CCN(Cc2ccc(F)c(F)c2)CC1` [Compound 114], the IC50 is less than 25 nM.

Take `CC[C@H]1CN(c2nc(N)c(-c3nnc(C)o3)nc2Cl)CCN1C1CCN(C(=O)c2ccc(Cl)cc2)CC1` [Compound 43]: the half-maximal inhibitory concentration (IC50) was less than 25 nM.

Take `CC[C@H]1CN(c2ncc(-c3nc[nH]n3)nc2C)[C@H](C)CN1C1CCN(C(CO)c2ccc(Cl)cc2)CC1` (stereo partly drawn) [Compound 133]: the IC50 was less than 25 nM.

Consider `CC[C@H]1CN(c2nc(NC(C)=O)c(-c3nnc(C)o3)nc2Cl)CCN1C1CCN(Cc2ccc(Cl)cc2)CC1` [Compound 90], for which the IC50 was more than 100 nM.

As to `CC[C@H]1CN(c2nc(N)c(-c3nnc(N)o3)nc2Cl)CCN1C1CCN(C(=O)c2ccc(C#N)cc2)CC1` [Compound 56], the IC50 is less than 25 nM.

As to `CC[C@H]1CN(c2nc(N)c(-c3nnc(C(N)=O)o3)nc2Cl)CCN1C1CCN(C(=O)c2ccc(Cl)nc2N)CC1` [Compound 40], the half-inhibitory concentration (IC50) is less than 25 nM.

On to `CCNc1nnc(-c2cnc(N3CCN(C4CCN(C(=O)c5ccc(Cl)cc5)CC4)[C@@H](CC)C3)c(CC)n2)o1` [Compound 158], for which the IC50 is less than 25 nM.

For the molecule `CC[C@H]1CN(c2ncc(-c3nc[nH]n3)nc2C)CCN1C1CCN(C(=O)c2ccc(F)c(F)c2)CC1` [Compound 113], the IC50 is less than 25 nM.

In the case of `CC[C@H]1CN(c2ncc(-c3nnc(C)o3)nc2C)CCN1C1CCN(C(=O)c2ccc(F)c(F)c2)CC1` [Compound 63], the IC50 is less than 25 nM.

Regarding `CC[C@H]1CN(c2nc(N)c(-c3nnc(C)o3)nc2Cl)CCN1C1CCN(Cc2ccc(Cl)c(OCCS(C)(=O)=O)c2)CC1` [Compound 7], the IC50 is less than 25 nM.

Turning to `CCOC(=O)c1nnc(-c2nc(Cl)c(N3CCN(C4CCN(C(=O)c5ccc(Cl)nc5N)CC4)[C@@H](CC)C3)nc2N)o1` [Compound 81], the IC50 is more than 100 nM.

Turning to `CCNc1nnc(-c2cnc(N3C[C@H](CC)N(C4CCN(C(=O)c5ccc(C(F)(F)F)nc5N)CC4)C[C@H]3C)c(C)n2)o1` [Compound 189], the IC50 was less than 25 nM.

Regarding `CC[C@H]1CN(c2nc(N)c(-c3nnc(CO)o3)nc2Cl)CCN1C1CCN([C@@H](CO)c2ccc(Cl)cc2)CC1` [Compound 6], the IC50 was less than 25 nM.

Turning to `CCNc1nnc(-c2cnc(N3CCN(C4CCN(Cc5ccc(C)c(F)c5)CC4)[C@@H](CC)C3)c(C)n2)o1` [Compound 127], the IC50 is less than 25 nM.

With `CC[C@H]1CN(c2ncc(-c3n[nH]c(N)n3)nc2C)CCN1C1CCN(C(=O)c2ccc(Cl)nc2N)CC1` [Compound 44], the IC50 is less than 25 nM.

Turning to `CCOC(=O)CNc1nnc(-c2nc(C)c(N3CCN(C4CCN(C(=O)c5ccc(Cl)nc5N)CC4)[C@@H](CC)C3)nc2N)o1` [Compound 192], the IC50 was less than 25 nM.

Consider `CC[C@H]1CN(c2ncc(-c3nnc(N)o3)nc2C)[C@H](C)CN1C1CCN(C(=O)c2ccc(Cl)cc2)CC1` [Compound 102], for which the IC50 is less than 25 nM.

For `CCNc1nnc(-c2cnc(N3CCN(C4CCN(C(=O)c5ccc(Cl)nc5N)CC4)[C@@H](CC)C3)c(Cl)n2)s1` [Compound 18], the IC50 is less than 25 nM.

For the molecule `CC[C@H]1CN(c2ncc(-c3nnc[nH]3)nc2C)[C@H](C)CN1C1CCN(C(=O)c2ccc(Cl)cc2)CC1` [Compound 118], the IC50 is 25 to 100 nM.

In the case of `CC[C@H]1CN(c2nc(F)c(-c3nnc(C)o3)nc2Cl)CCN1C1CCN(C(=O)c2ccc(Cl)cc2)CC1` [Compound 54], the IC50 is less than 25 nM.

For the molecule `CC[C@H]1CN(c2nc(N)c(-c3nnc(C(C)(C)O)o3)nc2Cl)CCN1C1CCN(C(=O)c2ccc(Cl)cc2)CC1` [Compound 78], the IC50 lay within 25 to 100 nM.

For the molecule `CCNc1nnc(-c2nc(C)c(N3CCN(C4CCN(C(=O)c5ccc(Cl)cc5)CC4)[C@@H](CC)C3)nc2C)o1` [Compound 157], the IC50 was less than 25 nM.

Take `CC[C@H]1CN(c2nc(N)c(-c3nnc(NCC(=O)OC)o3)nc2Cl)CCN1C1CCN(C(=O)c2ccc(Cl)nc2N)CC1` [Compound 26]: the IC50 is less than 25 nM.

Consider `CCNC(=O)Nc1nnc(-c2nc(Cl)c(N3CCN(C4CCN(C(=O)c5ccc(Cl)nc5N)CC4)[C@@H](CC)C3)nc2N)o1` [Compound 42], for which the IC50 was less than 25 nM.
